Measurements as given in patent publication US7012089B2, “[1,4]Diazocino[7,8,1-hi]indole derivatives as antipsychotic and antiobesity agents” (Wyeth, priority 2002, dated 2006).
Read-outs that look alike come from different tables or passages of the source.

Assays:
[1] = target: T1, human 5-HT2C receptor (Homo sapiens, UniProt P28335); assay: 5-HT2C receptor-stimulated calcium mobilization (FLIPR) in CHO cells; format: cell-based; settings: for Emax: CHO, read-out: 5-HT2C Function Emax (%)
T1 sequence (P28335 33-458): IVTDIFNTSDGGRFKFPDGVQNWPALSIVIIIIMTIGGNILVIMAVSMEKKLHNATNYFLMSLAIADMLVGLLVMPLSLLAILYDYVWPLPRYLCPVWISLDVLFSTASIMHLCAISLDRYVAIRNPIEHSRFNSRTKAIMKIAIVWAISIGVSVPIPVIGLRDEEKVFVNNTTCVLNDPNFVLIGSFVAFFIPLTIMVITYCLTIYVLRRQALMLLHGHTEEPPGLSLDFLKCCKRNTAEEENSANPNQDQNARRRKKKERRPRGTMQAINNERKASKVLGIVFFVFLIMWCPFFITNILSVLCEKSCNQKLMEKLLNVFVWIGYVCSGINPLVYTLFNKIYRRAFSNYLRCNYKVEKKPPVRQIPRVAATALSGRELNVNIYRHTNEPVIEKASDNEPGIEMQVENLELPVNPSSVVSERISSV

[2] = target: T2, human 5-hydroxytryptamine-2C (h-5-HT2C) receptor (Homo sapiens, UniProt P28335); assay: [125I]DOI binding to membranes of CHO cells expressing the h-5-HT2C receptor
T2 sequence (P28335 33-458): T1 sequence (P28335 33-458)

[3] = 5-HT2c Affinity KI (nM), displacement of [125I]DOI, CHO cell membranes
[4] = calcium mobilization, CHO cells stably expressing human 5-HT2C, read-out: 5-HT2C Function EC50

CN1CCc2ccc(Cl)c3c4c(n(c23)CC1)CCC4 [Example 34, 8-Chloro-3-methyl-2,3,4,5,10,11-hexahydro-1H,9H-cyclopenta[b][1,4]diazocino[7,8,1-hi]indole]
EC50 [1]: 0.081 µM | Emax [1]: 40% | Ki [2, 3]: 15 nM

CN1CCc2ccc(F)c3c2N(CC1)C1CCCC31 (centres unmarked) [Example 26, 8-Fluoro-3-methyl-2,3,4,5,9,10,11,11a-octahydro-1H,8bH-cyclopenta[b][1,4]diazocino[7,8,1-hi]indole]
Ki ([2]; read-out: 5-HT2c Affinity KI): 176 nM

Clc1ccc2c3c1C1CCCC1N3CCNCC2 (centres unmarked) [Example 40, 8-Chloro-2,3,4,5,9,10,11,11a-octahydro-1H,8bH-cyclopenta[b][1,4]diazocino[7,8,1-hi]indole]
EC50 [1]: 0.081 µM | Emax [1]: 80% | Ki [2, 3]: 20 nM

c1cc2c3c(c1)[C@H]1CCC[C@H]1N3CCNCC2 (single isomer, unassigned) [Example 46, (−)-(8bR*,11aR*)-2,3,4,5,9,10,11,11a-Octahydro-1H,8bH-cyclopenta[b][1,4]diazocino[7,8,1-hi]indole]
EC50 [1]: 0.038 µM | Emax [1]: 70% | Ki [2, 3]: 19 nM

CN1CCc2cccc3c2N(CC1)C1CCCC31 (centres unmarked) [Example 3, 3-Methyl-2,3,4,5,9,10,11,11a-octahydro-1H,8bH-cyclopenta[b][1,4]diazocino[7,8,1-hi]indole]
EC50 [1]: 0.037 µM | Emax [1]: 50% | Ki [2, 3]: 41 nM

Clc1ccc2c3c1[C@H]1CCCC[C@H]1N3CCNCC2 (single isomer, unassigned) [Example 42, (+)-(8bR*,12aR*)-8-Chloro-2,3,4,5,8b,9,10,11,12,12a-decahydro-1H-[1,4]diazocino[7,8,1-jk]carbazole]
Ki [2, 3]: 5.1 nM

Fc1ccc2c3c1c1c(n3CCNCC2)CCCC1 [Example 29, 8-Fluoro-2,3,4,5,9,10,11,12-octahydro-1H-[1,4]diazocino[7,8,1-jk]carbazole]
EC50 [1]: 0.008 µM | Emax [1]: 90% | Ki [2, 3]: 1 nM

Clc1ccc2c3c(n4c2c1CCNCC4)CCCCC3 [Example 19, 6-Chloro-2,3,4,5,10,11,12,13-octahydro-1H,9H-cyclohepta[b][1,4]diazocino[7,8,1-hi]indole]
Ki ([2]; read-out: 5-HT2c Affinity KI): 4970 nM

CN1CCc2c(Cl)ccc3c2N(CC1)C1CCCC31 (centres unmarked) [Example 15, 6-Chloro-3-Methyl-2,3,4,5,9,10,11,11a-octahydro-1H,8bH-cyclopenta[b][1,4]diazocino[7,8,1-hi]indole]
Ki ([2]; read-out: 5-HT2c Affinity KI): 131 nM

c1cc2c3c(c1)C1CCCCC1N3CCNCC2 (centres unmarked) [Example 8, 2,3,4,5,8b,9,10,11,12,12a-Decahydro-1H-[1,4]diazocino[7,8,1-jk]carbazole]
EC50 [1]: 0.018 µM | Emax [1]: 80% | Ki [2, 3]: 22 nM

Clc1ccc2c3c(n4c2c1CCNCC4)CCC3 [Example 17, 6-Chloro-2,3,4,5,10,11-hexahydro-1H,9H-cyclopenta[b][1,4]diazocino[7,8,1-hi]indole]
Ki ([2]; read-out: 5-HT2c Affinity KI): 156 nM

CN1CCc2ccc(Cl)c3c2N(CC1)C1CCCC31 (centres unmarked) [Example 36, 8-Chloro-3-methyl-2,3,4,5,9,10,11,11a-octahydro-1H,8bH-cyclopenta[b][1,4]diazocino[7,8,1-hi]indole]
Emax [1]: 40% | EC50 [1, 4]: 0.467 µM | Ki [2, 3]: 12 nM

CN1CCc2ccc(Cl)c3c4c(n(c23)CC1)CCCC4 [Example 35, 8-Chloro-3-methyl-2,3,4,5,9,10,11,12-octahydro-1H-[1,4]diazocino[7,8,1-jk]carbazole]
Emax [1]: 50% | EC50 [1, 4]: 0.287 µM | Ki [2, 3]: 11 nM

CN1CCc2ccc(F)c3c2N(CC1)C1CCCCC31 (centres unmarked) [Example 27, 8-Fluoro-3-methyl-2,3,4,5,8b,9,10,11,12,12a-decahydro-1H-[1,4]diazocino[7,8,1-jk]carbazole]
Emax [1]: 70% | EC50 [1, 4]: 0.261 µM | Ki [2, 3]: 13 nM

CN1CCc2cccc3c4c(n(c23)CC1)CCCCC4 [Example 9, 3-Methyl-2,3,4,5,10,11,12,13-octahydro-1H,9H-cyclohepta[b][1,4]diazocino[7,8,1-hi]indole]
Emax [1]: 25% | EC50 [1, 4]: 0.275 µM | Ki [2, 3]: 19 nM

CSc1ccc2c(c1)C(N1CCN(C)CC1)Cc1ccccc1S2 (centres unmarked) [Methiothepin, reference compound]
Ki ([2]; reference compounds, displacement of [125I]DOI, CHO cell membranes, read-out: Ki (95% confidence interval)): 4.6 nM

CN1CCc2cccc3c2N(CC1)C1CCCCC31 (centres unmarked) [Example 7, 3-Methyl-2,3,4,5,8b,9,10,11,12,12a-decahydro-1H-[1,4]diazocino[7,8,1-jk]carbazole]
EC50 [1]: 0.074 µM | Emax [1]: 60% | Ki [2, 3]: 24 nM

Clc1ccc2c3c(n4c2c1CCNCC4)CCCC3 [Example 18, 6-Chloro-2,3,4,5,9,10,11,12-octahydro-1H-[1,4]diazocino[7,8,1-jk]carbazole]
Ki [2, 3]: 83 nM

Fc1ccc2c3c1C1CCCCC1N3CCNCC2 (centres unmarked) [Example 31, 8-Fluoro-2,3,4,5,8b,9,10,11,12,12a-decahydro-1H[1,4]diazocino[7,8,1-jk]carbazole]
EC50 [1]: 0.087 µM | Emax [1]: 60% | Ki [2, 3]: 8 nM

CN1CCc2c(Cl)ccc3c2N(CC1)C1CCCCCC31 (centres unmarked) [Example 16, 6-Chloro-3-methyl-2,3,4,5,9,10,11,12,13,13a-decahydro-1H,8bH-cyclohepta[b][1,4]diazocino[7,8,1-hi]indole]
Ki [2, 3]: 84 nM

Clc1ccc2c3c1C1CCCCC1N3CCNCC2 (centres unmarked) [Example 41, 8-Chloro-2,3,4,5,8b,9,10,11,12,12a-decahydro-1H-[1,4]diazocino[7,8,1-jk]carbazole]
EC50 [1]: 0.091 µM | Emax [1]: 90% | Ki [2, 3]: 7.5 nM

Clc1ccc2c3c1CCNCCN3C1CCCCCC21 (centres unmarked) [Example 22, 6-Chloro-2,3,4,5,9,10,11,12,13,13a-decahydro-1H,8bH-cyclohepta[b][1,4]diazocino[7,8,1-hi]indole]
Emax [1]: 60% | EC50 [1, 4]: 0.326 µM | Ki [2, 3]: 50 nM

c1cc2c3c(c1)[C@H]1CCCC[C@H]1N3CCNCC2 (single isomer, unassigned) [Example 48, (−)-(8bR*,12aR*)-2,3,4,5,8b,9,10,11,12,12a-Decahydro-1H[1,4]diazocino[7,8,1-jk]carbazole]
EC50 [1]: 0.042 µM | Emax [1]: 70% | Ki [2, 3]: 17 nM

Fc1ccc2c3c1c1c(n3CCNCC2)CCC1 [Example 28, 8-Fluoro-2,3,4,5,10,11-hexahydro-1H,9H-cyclopenta[b][1,4]diazocino[7,8,1-hi]indole]
EC50 [1]: 0.036 µM | Emax [1]: 80% | Ki [2, 3]: 12 nM

CN1CCc2ccc(F)c3c4c(n(c23)CC1)CCC4 [Example 24, 8-Fluoro-3-methyl-2,3,4,5,10,11-hexahydro-1H,9H-cyclopenta[b][1,4]diazocino[7,8,1-hi]indole]
Ki [2, 3]: 93 nM

Fc1ccc2c3c1[C@H]1CCCC[C@H]1N3CCNCC2 (single isomer, unassigned) [Example 33, (−)-(8bR*,12aR*)-8-Fluoro-2,3,4,5,8b,9,10,11,12,12a-decahydro-1H-[1,4]diazocino[7,8,1-jk]carbazole]
Ki [2, 3]: 1.4 nM

c1cc2c3c(c1)[C@H]1CCC[C@H]1N3CCNCC2 (single isomer, unassigned) [Example 45, (+)-(8bR*,11aR*)-2,3,4,5,9,10,11,11a-Octahydro-1H,8bH-cyclopenta[b][1,4]diazocino[7,8,1-hi]indole]
Ki [2, 3]: 362 nM

CCN1CCc2c(Cl)ccc3c2N(CC1)C1CCCCC31 (centres unmarked) [Example 23, 6-Chloro-3-ethyl-2,3,4,5,8b,9,10,11,12,12a-decahydro-1H-[1,4]diazocino[7,8,1-jk]carbazole]
Ki ([2]; read-out: 5-HT2c Affinity KI): 116 nM

CN1CCc2ccc(F)c3c4c(n(c23)CC1)CCCC4 [Example 25, 8-Fluoro-3-methyl-2,3,4,5,9,10,11,12-octahydro-1H-[1,4]diazocino[7,8,1-jk]carbazole]
Ki [2, 3]: 68 nM

Clc1ccc2c3c1CCNCCN3C1CCCC21 (centres unmarked) [Example 20, 6-Chloro-2,3,4,5,9,10,11,11a-octahydro-1H,8bH-cyclopenta[b][1,4]diazocino[7,8,1-hi]indole]
Ki ([2]; read-out: 5-HT2c Affinity KI): 111 nM

c1cc2c3c(c1)[C@H]1CCCC[C@H]1N3CCNCC2 (single isomer, unassigned) [Example 47, (+)-(8bR*,12aR*)-2,3,4,5,8b,9,10,11,12,12a-Decahydro-1H-[1,4]diazocino[7,8,1-jk]carbazole]
Ki [2, 3]: 135 nM

Clc1ccc2c3c1[C@H]1CCCC[C@H]1N3CCNCC2 (single isomer, unassigned) [Example 43, (−)-(8bR*,12aR*)-8-Chloro-2,3,4,5,8b,9,10,11,12,12a-decahydro-1H-[1,4]diazocino[7,8,1-jk]carbazole]
Ki [2, 3]: 7 nM

COc1cc(CC(C)N)c(OC)cc1I (centres unmarked) [[^125I] DOI, reference compound]
Kd ([2]; saturation binding with increasing concentrations of [125I]DOI, read-out: dissociation constant, KD): 0.0004 µM

CN1CCc2cccc3c2N(CC1)C1CCSCC31 (centres unmarked) [Example 44, 3-Methyl-2,3,4,5,9,10,11,12-octahydro-1H,9H-[1,4]diazocino[7,8,1-hi]thiopyrano[4,3-b]indole]
Ki ([2]; read-out: 5-HT2c Affinity KI): 1720 nM

CCN1CCc2c(Cl)ccc3c2N(CC1)C1CCCC31 (centres unmarked) [Example 21, 6-Chloro-3-ethyl-2,3,4,5,9,10,11,11a-octahydro-1H,8bH-cyclopenta[b][1,4]diazocino[7,8,1-hi]indole]
Ki ([2]; read-out: 5-HT2c Affinity KI): 137 nM

Fc1ccc2c3c1[C@H]1CCCC[C@H]1N3CCNCC2 (single isomer, unassigned) [Example 32, (+)-(8bR*,12aR*)-8-Fluoro-2,3,4,5,8b,9,10,11,12,12a-decahydro-1H-[1,4]diazocino[7,8,1-jk]carbazole]
Ki [2, 3]: 2 nM
